Earlier results, collected in patent US4981867A, “Treatment of tremor using compounds that depress calcium currents in thalamic and other central nervous system neurons” (The Board of Trustees of the Leland Stanford Junior …, priority 1989, dated 1991).

Test system: essential-familial tremor
Conditions: stated as known in background

Compound	suppression of essential-familial tremor
CCC1(c2ccccc2)C(=O)NCNC1=O [primidone]	can be suppressed
CC(C)NCC(O)COc1cccc2ccccc12 (centres unmarked) [propranolol]	can be suppressed
